This assay addresses T1, PD-L1 (Homo sapiens, UniProt Q9NZQ7).
T1 construct: hPDL1(19-239)-TVMV-His; made in house; host or cells: HEK293T
In words: PD-1/PD-L1 Homogenous Time-Resolved Fluorescence (HTRF) binding assay (PD-1-Ig/PD-L1-His). The conditions noted are these: inhibition of PD-1-Ig binding to PD-L1-TVMV-His, read-out: HTRF IC50. The method, boiled down:
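Inhibitors pre-incubated 15 min with PD-L1-His (10 nM final), then PD-1-Ig (20 nM final) added for 15 min in dPBS/0.1% BSA/0.05% Tween-20. Eu-cryptate anti-Ig (1 nM) and APC anti-His (20 nM) added, 30 min equilibration, 665/620 nm HTRF ratio read.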
(Time-resolved FRET reads energy transfer from a long-lived donor to a nearby acceptor.)

Where two headings read alike, the source gives them in different places. Positions of bridges follow the written chain, without caps; N, C: chain ends. Non-standard residues stand in square brackets, D forms with d. Residues, ends and D or L forms follow the SMILES beside them. Trp(1-CH2COOH) = N[C@@H](Cc1cn(CC(=O)O)c2ccccc12)C(=O)O; Hyp = O=C(O)[C@@H]1C[C@@H](O)CN1; NMeNle = CCCC[C@H](NC)C(=O)O; NMeA = CN[C@@H](C)C(=O)O; Aun = NCCCCCCCCCCC(=O)O; Dab = NCC[C@H](N)C(=O)O; Dap = NC[C@H](N)C(=O)O

T1 sequence (Q9NZQ7 with tags, fused parts or gaps): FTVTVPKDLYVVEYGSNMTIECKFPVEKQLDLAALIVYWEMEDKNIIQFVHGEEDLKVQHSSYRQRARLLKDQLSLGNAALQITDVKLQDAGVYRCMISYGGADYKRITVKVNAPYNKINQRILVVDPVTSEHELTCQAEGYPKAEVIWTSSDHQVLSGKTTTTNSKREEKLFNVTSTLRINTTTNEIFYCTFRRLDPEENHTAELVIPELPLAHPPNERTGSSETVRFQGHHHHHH

Regarding `CCCC[C@H]1C(=O)N(C)[C@@H](CCCC)C(=O)N[C@@H](CC(C)C)C(=O)N[C@H](C(=O)NCC(=O)NCC(=O)NCC(=O)NCCCCCCCCCCC(=O)O)CSCC(=O)N[C@@H](Cc2ccc(O)cc2)C(=O)N(C)[C@@H](C)C(=O)N[C@@H](CC(=O)O)C(=O)N2CCC[C@H]2C(=O)N[C@@H](CN)C(=O)N[C@@H](CCC(=O)O)C(=O)N2C[C@H](O)C[C@H]2C(=O)N[C@@H](Cc2c[nH]c3ccccc23)C(=O)N[C@@H](CCN)C(=O)N[C@@H](Cc2cn(CC(=O)O)c3ccccc23)C(=O)N1C` [Example 11097] ({CH2CO}-Y[NMeA]DP[Dap]E[Hyp]W[Dab][Trp(1-CH2COOH)][NMeNle][NMeNle]LCGGG[Aun]-OH; thioether N-14), the concentration for half-maximal inhibition (IC50) (value given as range class) was 10 to 99 nM.

With `CCCC[C@H]1C(=O)N(C)[C@@H](CCCC)C(=O)N[C@@H](CC(C)C)C(=O)N[C@H](C(=O)NCC(=O)NCC(=O)NCC(=O)NCCCCCCCCCCC(=O)O)CSCC(=O)N[C@@H](Cc2ccc(O)cc2)C(=O)N(C)[C@@H](C)C(=O)N[C@@H](CC(=O)O)C(=O)N2CCC[C@H]2C(=O)N[C@@H](Cc2cnc[nH]2)C(=O)N[C@@H](CCC(=O)O)C(=O)N2C[C@H](O)C[C@H]2C(=O)N[C@@H](Cc2c[nH]c3ccccc23)C(=O)N[C@@H](CCN)C(=O)N[C@@H](Cc2cn(CC(=O)O)c3ccccc23)C(=O)N1C` [Example 11098] ({CH2CO}-Y[NMeA]DPHE[Hyp]W[Dab][Trp(1-CH2COOH)][NMeNle][NMeNle]LCGGG[Aun]-OH; thioether N-14), the IC50 (value given as range class) is 10 to 99 nM.

As to `CCCC[C@H]1C(=O)N(C)[C@@H](CCCC)C(=O)N[C@@H](CC(C)C)C(=O)N[C@H](C(=O)NCC(=O)N[C@@H](CC(=O)O)C(=O)NCC(=O)NCCCCCCCCCCC(=O)O)CSCC(=O)N[C@@H](Cc2ccc(O)cc2)C(=O)N(C)[C@@H](C)C(=O)N[C@@H](CC(N)=O)C(=O)N2CCC[C@H]2C(=O)N[C@@H](CN)C(=O)N[C@@H](CC(C)C)C(=O)N2C[C@H](O)C[C@H]2C(=O)N[C@@H](Cc2c[nH]c3ccccc23)C(=O)N[C@@H](CCN)C(=O)N[C@@H](Cc2cn(CC(=O)O)c3ccccc23)C(=O)N1C` [Example 11099] ({CH2CO}-Y[NMeA]NP[Dap]L[Hyp]W[Dab][Trp(1-CH2COOH)][NMeNle][NMeNle]LCGDG[Aun]-OH; thioether N-14), the IC50 (value given as range class) was 0.3 to 9.9 nM.

In the case of `CCCC[C@H]1C(=O)N(C)[C@@H](CCCC)C(=O)N[C@@H](CC(C)C)C(=O)N[C@H](C(=O)NCC(=O)N[C@H](CC(=O)O)C(=O)NCC(=O)NCCCCCCCCCCC(=O)O)CSCC(=O)N[C@@H](Cc2ccc(O)cc2)C(=O)N(C)[C@@H](C)C(=O)N[C@@H](CC(N)=O)C(=O)N2CCC[C@H]2C(=O)N[C@@H](CN)C(=O)N[C@@H](CC(C)C)C(=O)N2C[C@H](O)C[C@H]2C(=O)N[C@@H](Cc2c[nH]c3ccccc23)C(=O)N[C@@H](CCN)C(=O)N[C@@H](Cc2cn(CC(=O)O)c3ccccc23)C(=O)N1C` [Example 11100] ({CH2CO}-Y[NMeA]NP[Dap]L[Hyp]W[Dab][Trp(1-CH2COOH)][NMeNle][NMeNle]LCG[dD]G[Aun]-OH; thioether N-14), the IC50 (value given as range class) lay in the range of 10 to 99 nM.

Turning to `CCCC[C@H]1C(=O)N(C)[C@@H](CCCC)C(=O)N[C@@H](CC(C)C)C(=O)N[C@H](C(=O)NCC(=O)N[C@H](CC(=O)O)C(=O)NCCCCCCCCCCC(=O)O)CSCC(=O)N[C@@H](Cc2ccc(O)cc2)C(=O)N(C)[C@@H](C)C(=O)N[C@@H](CC(N)=O)C(=O)N2CCC[C@H]2C(=O)N[C@@H](CN)C(=O)N[C@@H](CC(C)C)C(=O)N2C[C@H](O)C[C@H]2C(=O)N[C@@H](Cc2c[nH]c3ccccc23)C(=O)N[C@@H](CCN)C(=O)N[C@@H](Cc2cn(CC(=O)O)c3ccccc23)C(=O)N1C` [Example 11101] ({CH2CO}-Y[NMeA]NP[Dap]L[Hyp]W[Dab][Trp(1-CH2COOH)][NMeNle][NMeNle]LCG[dD][Aun]-OH; thioether N-14), the IC50 (value given as number) is 4.1 nM.

By IC50 is commonly meant the concentration at which inhibition is half-maximal.

Source of the values: patent US10633419B2, “Immunomodulators” (BRISTOL-MYERS SQUIBB COMPANY, priority 2014, dated 2020).
